Results: US20250074869A1, “AMINO-COMBRETASTATIN DERIVATIVE AND USE THEREOF” (priority 2020, published 2025)

Assays:
Male ICR mice = experiment: Acute toxicity study in animals (oral LD50); conditions: mouse, in vivo
Text: Male ICR mice weighed 23±2 g, clean grade, were selected. The route of administration was intragastric (ig) administration, which is consistent with the intended oral route for clinical use.
Mice were randomly divided into 8 groups by weight: the blank control group, Example 1 group, Example 5 group, Example 11 group, Example 12 group, Example 13 group, Example 14 group and control group. Among these, the control group received amino-combretastatin serinamide hydrochloride as the control (hereinafter referred to as control).
Preparation of the compounds used in the example groups: The compounds obtained in Example 1, Example 3. Example 4. Example 5. Example 6. Example 7. Example 8. Example 9. Example 10. Example 11. Example 12, Example 13 and Example 14 were prepared into hydrochloride salts according to the method disclosed in Example 2.
Pre-treatment: […] were deprived of food but not water for 12 h before the study. and randomized into groups of 10 by body weight. The treatment groups were intragastrically administered once at 0.25 mL/10 g body weight, and the water control group received an equivalent amount of distilled water through intragastric administration. The LD100 value (the amount for 100% death), LD0 (the amount for 0 death) and the corresponding range r value between the dose groups were calculated, and LD50 was determined.
Study procedures: 160 mice were randomized into 8 groups of 20 mice by body weight. After deprivation of food but not water for 12 h before the study, each group was intragastrically given the compound once at 0.3 mL/10 g body weight. Since no death was observed after 12 h, the second dose was given. The control group received equivalent volumes of water. The daily dose of each group was calculated; the control group received equal volumes of water and was subjected to an acute toxicity study for observation and the body weight of the mice was recorded daily for 14 days.

[1] = system: human liver cancer cells Bel-7402; experiment: Efficacy study in nude mouse with xenograft tumor, Bel-7402; assay type: in vivo; conditions: BALB/cA-nude mice, subcutaneous xenograft, 50 mg/kg intragastric once daily for 21 days, dosed as hydrochloride
Description: (§1) BALB/cA-nude mice aged 6 to 7 weeks were purchased from Shanghai Slac Laboratory Animal Co., Ltd. The nude mice were subcutaneously grafted with human liver cancer cells Bel-7402, colon cancer cells HT-29, gastric cancer cells SGC-7901 or non-small cell lung cancer cells A549. After the tumor grew to 100 to 250 mm^3, the animals were randomized (d0). The tumor volumes and body weights were measured twice or thrice a week, and the data were recorded. Tumor volume (V) was calculated as follows:
(§2) [formula] • wherein a and b represent length and width, respectively; T and C are the tumor volumes at the end of study; T0 and C0 are the tumor volumes at the start of study.
(§3) All samples were diluted to the desired concentration with 50% PEG400 in distilled water. The regimen was once daily for 21 days at 50 mg/kg mouse body weight through intragastric administration, and 50 mg/kg for the control. The compounds obtained in Examples 1, 3, 4, 5, 6, 7, 8, 9, 10, 11, 12, 13 and 14 and the control were prepared into corresponding hydrochloride as the dosing compounds according to the method disclosed in Example 2 to investigate their efficacy on human liver cancer cell Bel-7402, colon cancer cell HT-29, gastric cancer cell SGC-7901 or non-small cell lung cancer cell A549 xenograft tumors in nude mice and to compare the compounds with the control (prepared as in Example 16).

colon cancer cells HT-29 = experiment: Efficacy study in nude mouse with xenograft tumor, HT-29; assay type: in vivo, human; conditions: BALB/cA-nude mice, subcutaneous xenograft, 50 mg/kg intragastric once daily for 21 days, dosed as hydrochloride
Description: as §1, §2, §3

[2] = system: gastric cancer cells SGC-7901; experiment: Efficacy study in nude mouse with xenograft tumor, SGC-7901; assay type: in vivo, human; conditions: BALB/cA-nude mice, subcutaneous xenograft, 50 mg/kg intragastric once daily for 21 days, dosed as hydrochloride
Description: as §1, §2, §3

[3] = system: non-small cell lung cancer cells A549; experiment: Efficacy study in nude mouse with xenograft tumor, A549; assay type: in vivo, human; conditions: BALB/cA-nude mice, subcutaneous xenograft, 50 mg/kg intragastric once daily for 21 days, dosed as hydrochloride
Description: as §1, §2, §3

amino-combretastatin serinamide hydrochloride [Control, reference compound]
LD50 (Male ICR mice): 200 mg/kg
% tumor inhibition (D21) Bel-7402 [1]: 39%
% tumor inhibition (D21) HT-29 (colon cancer cells HT-29): 42%
% tumor inhibition (D21) SGC-7901 [2]: 34%
% tumor inhibition (D21) A549 [3]: 30%
